Data on six compounds can be found in patent US8314247B2, “Hydrazone derivative” (Mitsubishi Tanabe Pharma Corporation, priority 2007, dated 2012).

pEC50: −log10 of the molar value.

The test deals with T1, human-liver type GST-GK (Homo sapiens, UniProt P35557).
T1 construct: made in house; host or cells: E. coli
T1 sequence (P35557 1-466 isoform P35557-2): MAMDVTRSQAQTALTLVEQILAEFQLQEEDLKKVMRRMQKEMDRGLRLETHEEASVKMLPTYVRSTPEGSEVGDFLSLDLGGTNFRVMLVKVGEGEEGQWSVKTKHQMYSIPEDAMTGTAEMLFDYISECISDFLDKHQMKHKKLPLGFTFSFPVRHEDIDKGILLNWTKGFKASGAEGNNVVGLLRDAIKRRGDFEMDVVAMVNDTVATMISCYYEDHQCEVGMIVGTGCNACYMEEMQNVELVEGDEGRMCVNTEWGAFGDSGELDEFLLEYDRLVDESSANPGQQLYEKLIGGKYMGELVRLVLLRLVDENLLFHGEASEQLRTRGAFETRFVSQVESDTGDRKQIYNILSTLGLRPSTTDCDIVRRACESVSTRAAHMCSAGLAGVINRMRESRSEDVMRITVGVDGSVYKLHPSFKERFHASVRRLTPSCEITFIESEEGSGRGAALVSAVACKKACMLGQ
Kind of test: Glucokinase activation effect (G6PDH-coupled NADPH assay). Particulars: glucose 5 mM, ATP 5 mM, 30° C., NADPH monitored at 340 nm for 10 minutes, compound 0.01 to 100 μM (5% DMSO). The test is classed as biochemical. Here is the method:
A glucokinase activity was examined by measuring the amount of NADPH obtained in generating 6-phosphogluconic acid from […], not by directly measuring the generated glucose-6-phosphoric acid. The glucokinase enzyme used in the examination was human-liver type GST-GK expressed by E. Coli. The measurement of the activity was carried out by the following procedures. Specifically, 30 mM HEPES buffer (pH7.4) containing 30 mM MgCl2, 30 mM KCl, 1 mM DTT, 5 mM NADP (Nacalai), 0.7 mU/mL G6PDH (Roche 737-232 grade II from yeast) and 0.17 μL/mL GST-GK was prepared as a reaction solution. An evaluating compound dissolved in DMSO was added to the reaction solution to give a final concentration of 0.01 to 100 μM (5% DMSO). Thereto was added glucose (final concentration of 5 mM) as a substrate and was added ATP (final concentration of 5 mM) to proceed the reaction. The reaction temperature is 30° C. and a generation of NADPH was monitored by changes of absorbance of 340 nm. An increase of absorbance for 10 minutes after starting reaction was measured and the blank-corrected value was used as a GK activity (mOD/min). EC50 level was calculated by a GK activity level in an addition of the evaluating compound at each concentration.
As usually defined, the pEC50 is the negative decadic logarithm of the EC50, by convention in mol/L. Read a low pEC50 as a large EC50. `COc1ccc2nc(NC(=O)/C(=N/N3CCCC3)c3ccc(S(=O)(=O)C4CC4)cc3)sc2n1` [Example 1] had a negative-log EC50 (pEC50) of 7.15.

In turn, `O=C(Nc1ncc(F)s1)/C(=N/N1CCOCC1)c1ccc(S(=O)(=O)C2CC2)cc1` [Example 2] had a pEC50 of 6.44.

As for `O=C(Nc1ncc(Br)s1)/C(=N/N1CCCC1)c1ccc(S(=O)(=O)C2CC2)cc1` [Example 24], the pEC50 is 7.52.

For the compound `CN1CCN(S(=O)(=O)c2cnc(NC(=O)/C(=N/N3CCCC3)c3ccc(S(=O)(=O)C4CC4)cc3)s2)CC1` [Example 27], the negative-log EC50 (pEC50) was 6.66.

In turn, `O=C(Nc1ncc(Cl)s1)/C(=N/N1CCOCC1)c1ccc(S(=O)(=O)C2CC2)cc1` [Example 42] had a negative logarithm of the EC50 (pEC50) of 6.96. This pEC50 lies 0.30 log units higher than the previous one.

`CN(C)S(=O)(=O)c1cnc(NC(=O)/C(=N/N2CCCC2)c2ccc(S(=O)(=O)C3CC3)cc2)s1` [Example 64] gave a pEC50 of 6.92.
